Laboratory results as given in patent publication US9211310B2, “Use of a Chinese medicine composition in preparing medicaments for treating secondary prevention of myocardial infarction” (TASLY PHARMACEUTICAL GROUP CO., LTD, priority 2010, dated 2015).

Tested on: patients after acute myocardial infarction
Experiment: Angina pectoris score, total and single (frequency/attack times, duration, pain degree, dose of nitroglycerin), same clinical trial
Format: in vivo, human
Set-up: total angina pectoris score, Md / total angina pectoris score, Mean: scale not given here
Conditions: for change of attack times score, patients (%): Follow-up baseline
Source text: In order to better understand the present invention, a multi-center, randomized, double-blind, double-dummy and positive drug controlled trial had been conducted. 3508 patients who were in accordance with the diagnostic standards of AMI for 28 days to 2 years and differentiated as Qi deficiency and blood stagnation syndrome by TCM were studied. 0.5 g Chinese medicine composition prepared by the method of EXAMPLE 1 (Coded as QSYQ) was administrated half an hour after meal, 3 times per day. Aspirine was used as a positive drug. The patients were treated for 1 year and observed for 6 months.
They included the overall survival time, angina pectoris score, TCM symptom score and life quality score, where angina pectoris score, TCM symptom score and life quality score were evaluated at randomization, in 1st, 3rd, 6th, 9th, 12th month after treatment and 18th month after follow-up.
(§1) Total angina pectoris score was described on every observation period and the change of observation in comparison with baseline. T-test or Wilcoxon rank sum test were used for inter-group comparison. Grade of total score was evaluated on every observation and Wilcoxon rank sum test was used for inter-group comparison. T-test and Pairing signed rank sum test were used for analyzing the change of total score on every observation between groups in comparison with the baseline.
(§2) Single angina pectoris score was depicted on every observation time-point and the change of observation in comparison with baseline. Wilcoxon rank sum test was used for inter-group comparison. Pairing signed rank sum test was used for analyzing the change of total score on every observation between groups in comparison with the baseline.
as §1, with “comparison with the baseline. T-test” for “comparison with baseline. T-test”
as §2, with “described” for “depicted”

[1] = FAS, 12 months after treatment-baseline
[2] = PP, 1 month after treatment-baseline
[3] = PP, 3 months after treatment-baseline

CC(=O)Oc1ccccc1C(=O)O [Control group, aspirine]
change of total angina pectoris score, Md [1]: −2.00
change of total angina pectoris score, Mean [1]: −3.28
patients with change of dose of nitroglycerin score 0 (%) [1]: (65.55%)
patients with change of dose of nitroglycerin score 1 (%) [1]: (0.52%)
patients with change of dose of nitroglycerin score 2 (%) [1]: (3.97%)
patients with change of dose of nitroglycerin score 4 (%) [1]: (0.40%)
patients with change of dose of nitroglycerin score 6 (%) [1]: (0.35%)
patients with change of dose of nitroglycerin score −1 (%) [1]: (0.52%)
patients with change of dose of nitroglycerin score −2 (%) [1]: (21.77%)
patients with change of dose of nitroglycerin score −3 (%) [1]: (0.06%)
patients with change of dose of nitroglycerin score −4 (%) [1]: (4.95%)
patients with change of dose of nitroglycerin score −5 (%) [1]: (0.06%)
patients with change of dose of nitroglycerin score −6 (%) [1]: (1.84%)
distribution of total angina pectoris score: Medium, number of patients (FAS, Baseline): 608
distribution of total angina pectoris score: Medium, percentage of patients (FAS, Baseline): (34.90%)
distribution of total angina pectoris score: Mild, number of patients (FAS, Baseline): 1086
distribution of total angina pectoris score: Mild, percentage of patients (FAS, Baseline): (62.34%)
distribution of total angina pectoris score: Severe, number of patients (FAS, Baseline): 48
distribution of total angina pectoris score: Severe, percentage of patients (FAS, Baseline): (2.76%)
total angina pectoris score, Md (FAS, Baseline): 8.00
total angina pectoris score, Mean (FAS, Baseline): 7.12
distribution of total angina pectoris score: Medium, number of patients (FAS, Follow-up): 199
distribution of total angina pectoris score: Medium, percentage of patients (FAS, Follow-up): (13.79%)
distribution of total angina pectoris score: Mild, number of patients (FAS, Follow-up): 1243
distribution of total angina pectoris score: Mild, percentage of patients (FAS, Follow-up): (86.14%)
distribution of total angina pectoris score: Severe, number of patients (FAS, Follow-up): 1
distribution of total angina pectoris score: Severe, percentage of patients (FAS, Follow-up): (0.07%)
patients with dose of nitroglycerin score 0 (%) (FAS, Follow-up): (74.24%)
patients with dose of nitroglycerin score 1 (%) (FAS, Follow-up): (0.90%)
patients with dose of nitroglycerin score 2 (%) (FAS, Follow-up): (23.19%)
patients with dose of nitroglycerin score 4 (%) (FAS, Follow-up): (1.04%)
patients with dose of nitroglycerin score 6 (%) (FAS, Follow-up): (0.63%)
total angina pectoris score, Md (FAS, Follow-up): 0.00
total angina pectoris score, Mean (FAS, Follow-up): 3.59
change of total angina pectoris score, Md (FAS, Follow-up-baseline): −2.00
change of total angina pectoris score, Mean (FAS, Follow-up-baseline): −3.49
patients with change of dose of nitroglycerin score 0 (%) (FAS, Follow-up-baseline): (64.39%)
patients with change of dose of nitroglycerin score 1 (%) (FAS, Follow-up-baseline): (0.28%)
patients with change of dose of nitroglycerin score 2 (%) (FAS, Follow-up-baseline): (4.04%)
patients with change of dose of nitroglycerin score 4 (%) (FAS, Follow-up-baseline): (0.28%)
patients with change of dose of nitroglycerin score 6 (%) (FAS, Follow-up-baseline): (0.21%)
patients with change of dose of nitroglycerin score −1 (%) (FAS, Follow-up-baseline): (0.42%)
patients with change of dose of nitroglycerin score −2 (%) (FAS, Follow-up-baseline): (21.81%)
patients with change of dose of nitroglycerin score −3 (%) (FAS, Follow-up-baseline): (0.14%)
patients with change of dose of nitroglycerin score −4 (%) (FAS, Follow-up-baseline): (6.41%)
patients with change of dose of nitroglycerin score −5 (%) (FAS, Follow-up-baseline): (0.14%)
patients with change of dose of nitroglycerin score −6 (%) (FAS, Follow-up-baseline): (1.88%)
change of attack times score, patients (%) (change 0, FAS): (44.70%)
change of attack times score, patients (%) (change 0, PP): (44.46%)
change of attack times score, patients (%) (change 1, FAS): (1.94%)
change of attack times score, patients (%) (change 1, PP): (1.99%)
change of attack times score, patients (%) (change 2, FAS): (1.73%)
change of attack times score, patients (%) (change 2, PP): (1.70%)
change of attack times score, patients (%) (change 4, FAS): (0.14%)
change of attack times score, patients (%) (change 4, PP): (0.14%)
change of attack times score, patients (%) (change −1, FAS): (22.52%)
change of attack times score, patients (%) (change −1, PP): (22.44%)
change of attack times score, patients (%) (change −2, FAS): (22.73%)
change of attack times score, patients (%) (change −2, PP): (22.87%)
change of attack times score, patients (%) (change −3, FAS): (2.01%)
change of attack times score, patients (%) (change −3, PP): (2.06%)
change of attack times score, patients (%) (change −4, FAS): (3.60%)
change of attack times score, patients (%) (change −4, PP): (3.69%)
change of attack times score, patients (%) (change −5, FAS): (0.21%)
change of attack times score, patients (%) (change −5, PP): (0.21%)
change of attack times score, patients (%) (change −6, FAS): (0.42%)
change of attack times score, patients (%) (change −6, PP): (0.43%)
attack times score, patients (%) (Follow-up, score 0, FAS): (53.64%)
attack times score, patients (%) (Follow-up, score 0, PP): (53.48%)
attack times score, patients (%) (Follow-up, score 1, FAS): (22.80%)
attack times score, patients (%) (Follow-up, score 1, PP): (22.87%)
attack times score, patients (%) (Follow-up, score 2, FAS): (22.94%)
attack times score, patients (%) (Follow-up, score 2, PP): (23.01%)
attack times score, patients (%) (Follow-up, score 4, FAS): (0.62%)
attack times score, patients (%) (Follow-up, score 4, PP): (0.64%)
distribution of total angina pectoris score: Medium, number of patients (PP, 1 month after treatment): 434
distribution of total angina pectoris score: Medium, percentage of patients (PP, 1 month after treatment): (29.21%)
distribution of total angina pectoris score: Mild, number of patients (PP, 1 month after treatment): 1030
distribution of total angina pectoris score: Mild, percentage of patients (PP, 1 month after treatment): (69.31%)
distribution of total angina pectoris score: Severe, number of patients (PP, 1 month after treatment): 22
distribution of total angina pectoris score: Severe, percentage of patients (PP, 1 month after treatment): (1.48%)
patients with dose of nitroglycerin score 0 (%) (PP, 1 month after treatment): (59.61%)
patients with dose of nitroglycerin score 1 (%) (PP, 1 month after treatment): (0.27%)
patients with dose of nitroglycerin score 2 (%) (PP, 1 month after treatment): (29.40%)
patients with dose of nitroglycerin score 4 (%) (PP, 1 month after treatment): (7.48%)
patients with dose of nitroglycerin score 6 (%) (PP, 1 month after treatment): (3.24%)
total angina pectoris score, Md (PP, 1 month after treatment): 6.00
total angina pectoris score, Mean (PP, 1 month after treatment): 5.95
change of total angina pectoris score, Md [2]: 0.00
change of total angina pectoris score, Mean [2]: −1.22
patients with change of dose of nitroglycerin score 0 (%) [2]: (80.36%)
patients with change of dose of nitroglycerin score 1 (%) [2]: (0.20%)
patients with change of dose of nitroglycerin score 2 (%) [2]: (3.78%)
patients with change of dose of nitroglycerin score 4 (%) [2]: (1.01%)
patients with change of dose of nitroglycerin score 6 (%) [2]: (0.27%)
patients with change of dose of nitroglycerin score −2 (%) [2]: (11.54%)
patients with change of dose of nitroglycerin score −4 (%) [2]: (2.29%)
patients with change of dose of nitroglycerin score −6 (%) [2]: (0.54%)
distribution of total angina pectoris score: Medium, number of patients (PP, 3 months after treatment): 363
distribution of total angina pectoris score: Medium, percentage of patients (PP, 3 months after treatment): (24.64%)
distribution of total angina pectoris score: Mild, number of patients (PP, 3 months after treatment): 1098
distribution of total angina pectoris score: Mild, percentage of patients (PP, 3 months after treatment): (74.54%)
distribution of total angina pectoris score: Severe, number of patients (PP, 3 months after treatment): 12
distribution of total angina pectoris score: Severe, percentage of patients (PP, 3 months after treatment): (0.81%)
patients with dose of nitroglycerin score 0 (%) (PP, 3 months after treatment): (62.95%)
patients with dose of nitroglycerin score 1 (%) (PP, 3 months after treatment): (0.75%)
patients with dose of nitroglycerin score 2 (%) (PP, 3 months after treatment): (29.10%)
patients with dose of nitroglycerin score 4 (%) (PP, 3 months after treatment): (4.96%)
patients with dose of nitroglycerin score 6 (%) (PP, 3 months after treatment): (2.24%)
total angina pectoris score, Md (PP, 3 months after treatment): 6.00
total angina pectoris score, Mean (PP, 3 months after treatment): 5.32
change of total angina pectoris score, Md [3]: 0.00
change of total angina pectoris score, Mean [3]: −1.85
patients with change of dose of nitroglycerin score 0 (%) [3]: (5.05%)
patients with change of dose of nitroglycerin score 1 (%) [3]: (0.20%)
patients with change of dose of nitroglycerin score 2 (%) [3]: (3.75%)
patients with change of dose of nitroglycerin score 4 (%) [3]: (0.55%)
patients with change of dose of nitroglycerin score 6 (%) [3]: (0.34%)
patients with change of dose of nitroglycerin score −1 (%) [3]: (0.34%)
patients with change of dose of nitroglycerin score −2 (%) [3]: (15.81%)
patients with change of dose of nitroglycerin score −4 (%) [3]: (3.14%)
patients with change of dose of nitroglycerin score −5 (%) [3]: (0.14%)
